The text below walks through data of patent US5573908A, “Adrenergic receptor as a proto-oncogene” (Duke University, priority 1993, dated 1996).

For orientation: Ki means a measure of affinity in units of concentration, obtained from inhibition or displacement.

Series [1] concerns RAT-1 fibroblasts transfected with expression vector alone. Put plainly: Focus formation in RAT-1 fibroblasts transfected with expression vector alone. The class given is cell-based. Here is the method: (§1) Transfection was carried out as follows: RAT-1 fibroblasts were seeded at a density of 2×10^5 cells in Dulbecco's modified Eagle's medium (DMEM) (Gibco) containing 5% fetal bovine serum (FBS) in 100 mm dishes. Cells were grown overnight, then transfected with 10 μg of DNA (expression vector alone [pZIP-NeoSV(X)1] or containing the α1B-ADR, α1B -ADR mutant [discussed in Example 3 below] or activated Ha-ras c-DNAs) by calcium phosphate precipitation (B. Cullen, Methods Enzymol. 152, 684 (1987)). The α1B -ADR used herein was the hamster α1B -ADR described in S. Cotecchia et al., Proc. Natl. Acad. Sci. USA 85, 7159-7163 (1988). After 16 hours, the DNA precipitate was removed, the cells washed and grown for 24 hours in complete medium. Cells were split 1:5, allowed to attach overnight and then cultured in DMEM with 5% FBS alone, supplemented with 10 μM norepinephrine (NE) or G418 (300 μg/ml). Dishes were supplemented with NE daily, and fed every 3 days with fresh medium.
^1 Cells were cultured for 3 weeks in the presence or absence of 10
μM norepinephrine (NE), supplemented daily, in medium containing 5%
FBS. The number of transformed foci were scored after 4 weeks of culture.
Results represent the average duplicate determinations from two
independent experiments which agreed within 25%; nd = not determined. […]
growth, the number of foci was scored. […]

Series [2] deals with NIH 3T3 fibroblasts transfected with expression vector alone. The series is described as follows: Focus formation in NIH 3T3 fibroblasts transfected with expression vector alone. Type of series: cell-based. To be noted: NIH 3T3 transfected with vector alone; 10 μM NE supplemented daily, 5% FBS (Table 1).
Series [3] deals with NIH 3T3 fibroblasts transfected with ras c-DNA. The series is described as follows: Focus formation in NIH 3T3 fibroblasts transfected with ras c-DNA. The class given is cell-based. The note with it: NIH 3T3 transfected with ras; 10 μM NE supplemented daily, 5% FBS (Table 1). Here is the method:
as §1, with “Dishes were supplemented with NE daily, and fed every 3 days with fresh medium.” left out
After transfection of plasmid DNA into RAT-1 fibroblasts, no change in phenotype or focal cell overgrowth was observed after 4 weeks in culture in the absence of added agonist (FIG. 1A). […] Agonist-induced foci represented approximately 15-25% of transfected clones with the number of G418 resistant colonies (40-60/dish) assessed in duplicate transfections. […]
FBS. The number of transformed foci were scored after 4 weeks of culture. […]
independent experiments which agreed within 25%; nd = not determined.

Series [4] deals with T1, α1B ADR (Mesocricetus auratus, UniProt P18841).
T1 construct: expressed in transfected cells; host or cells: RAT-1 fibroblasts (vector pZIP-NeoSV(X)1), focus-derived, G418-selected lines
T1 sequence (P18841 1-515): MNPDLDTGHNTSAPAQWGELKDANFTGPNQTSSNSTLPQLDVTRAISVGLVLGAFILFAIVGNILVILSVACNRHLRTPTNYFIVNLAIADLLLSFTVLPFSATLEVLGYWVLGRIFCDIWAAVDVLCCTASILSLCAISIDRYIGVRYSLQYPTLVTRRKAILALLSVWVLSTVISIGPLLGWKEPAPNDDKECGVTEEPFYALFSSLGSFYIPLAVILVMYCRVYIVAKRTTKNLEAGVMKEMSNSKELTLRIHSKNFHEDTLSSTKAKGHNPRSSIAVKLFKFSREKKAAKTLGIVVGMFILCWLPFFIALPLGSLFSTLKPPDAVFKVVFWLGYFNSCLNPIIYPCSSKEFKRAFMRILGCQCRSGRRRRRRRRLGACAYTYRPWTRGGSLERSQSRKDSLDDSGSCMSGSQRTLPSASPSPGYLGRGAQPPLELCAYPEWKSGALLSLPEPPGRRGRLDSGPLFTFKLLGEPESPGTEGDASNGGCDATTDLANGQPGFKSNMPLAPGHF
The series is described as follows: Ligand binding on membranes of RAT-1 fibroblast cell lines expressing the α1B ADR. On the set-up: species or system hamster. To be noted: competition with 100 pM [125I] HEAT; membranes, two clones; read-out: NE Ki. Here is the method: (§2) In Table 3, RAT-1 fibroblast cell lines transfected with expression vector alone or derived from transformed foci (α1B ADR or α1B ADR mutant) were selected with G418 (300 μg/ml). Ligand binding was performed on membranes prepared from two clones of each in accordance with known techniques (S. Cotecchia et al., Life Sci. 37, 2389 (1986)). For saturation binding analysis, [^125 ] HEAT concentrations ranged from 10 to 500 pM, nonspecific binding was determined using 1 μM prazosin; in competition experiments, the radioligand concentration was 100 pM. Ligand binding parameters were determined using computerized iterative nonlinear regression analysis (P. Munson, Methods in Enzymol. 92, 5432 (1983)). For assessment of receptor coupling to PI hydrolysis, cells were plated in 30 mm dishes, and labeled overnight with 3 μCi/ml of myo-[2-^3 II(N)]-inositol (1Ci=37 GBq; NEN Research Products) in DMEM containing 3.3% FBS in accordance with known techniques (S. Cotecchia et al., Proc. Natl. Acad. Sci. USA 87, 2896 (1990)). After 40 minute stimulation of cells with 10 μM norepinephrine (NE), inositol phosphates were extracted, and separated on AG 1-X8 anion exchange columns (BioRad Labs) in accordance with known techniques (S. Cotecchia et al., Proc. Natl. Acad. Sci. USA 87, 2896 (1990)). Total inositol phosphates were eluted with 1M ammonium formate/0.1M formic acid. Rmax indicates the percentage increase of total labeled inositol phosphates over basal levels following NE stimulation.

For series [5], the target named is T1, α1B ADR. Put plainly: NE stimulated PI hydrolysis in RAT-1 cell lines expressing the α1B ADR. Type of series: cell-based, hamster. Here is the method:
as §2, with “Rmax indicates the percentage increase of total labeled inositol phosphates over basal levels following NE stimulation.” left out

The subject of series [6] is α1B -ADR. To be noted: NE alone, serum free medium; data not shown.

“And” between values parts separate entries of the source, which are not always exact repeats. Identical values can stand only once.

Consider `NC[C@H](O)c1ccc(O)c(O)c1` [NE, norepinephrine], for which the “Foci No. +NE” value in series [1] (RAT-1 cell lines transfected with vector alone, 10 μM NE, 3 weeks of growth, two clones (Table 2)) is 0; in series [1] (RAT-1 transfected with vector alone, 10 μM NE supplemented daily, 5% FBS (Table 1)), 0; in series [2], 12; in series [3] it was 180. In series [4], the Ki is 5.82 µM and 5.33 µM. For the same molecule, the “NE Stimulated PI Hydrolysis Rmax” value in series [5] (10 μM NE, 40 minute, increase of total labeled inositol phosphates over basal, two clones) is 758 % increase and 410 % increase. In addition, the “increase in total inositol phosphates following NE stimulation” value in series [5] (focus-derived fibroblasts expressing α1B-ADR) is 400 to 800%. For the same molecule, the “increase in DNA synthetic activity” value in series [6] amounted to 11 fold.
